This note sets out measurements from ChEMBL document CHEMBL1133897, “Synthesis, antimalarial activity and inhibition of haem detoxification of novel bisquinolines” (Bioorg Med Chem Lett, 2001).

For orientation: IC50 means the concentration at which inhibition is half-maximal. Read a high IC50 as weaker potency.

The subject of assay [1] is Plasmodium falciparum. Put plainly: Inhibition of hydrogen peroxide-mediated haem detoxification in Plasmodium falciparum. The assay is classed as functional, organism-based.
Assay [2] has as its target T1, Histidine-rich protein PFHRP-II (Plasmodium falciparum, UniProt P05227).
T1 sequence (P05227 whole entry): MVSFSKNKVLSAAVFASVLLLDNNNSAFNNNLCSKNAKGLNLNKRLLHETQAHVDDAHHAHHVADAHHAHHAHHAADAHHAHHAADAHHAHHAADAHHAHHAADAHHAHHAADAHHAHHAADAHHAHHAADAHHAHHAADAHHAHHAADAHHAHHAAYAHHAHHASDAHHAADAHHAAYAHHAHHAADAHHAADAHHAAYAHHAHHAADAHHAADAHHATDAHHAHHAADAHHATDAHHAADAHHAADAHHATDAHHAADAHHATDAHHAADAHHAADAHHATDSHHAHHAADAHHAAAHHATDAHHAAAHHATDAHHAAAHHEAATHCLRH
The experiment in a line: Inhibition of beta-hematin formation in Plasmodium falciparum. The assay is classed as functional.

Assay [3] deals with Plasmodium falciparum. Put plainly: Growth inhibition of chloroquine-resistant Plasmodium falciparum KI. In kind it is functional, organism-based.
The test system of assay [4] is Plasmodium falciparum. Put plainly: Growth inhibition of chloroquine-sensitive Plasmodium falciparum D10. The assay is classed as functional, organism-based.

Each structure is given as a SMILES string.

On to `CCN(CC)CCCC(C)Nc1cc(CCCCCCCCc2cc(NC(C)CCCN(CC)CC)c3ccccc3n2)nc2ccccc12` (stereo unspecified), for which the IC50 with Plasmodium falciparum [1] came to 81000 nM; in assay [2], 97000 nM; in the assay on Plasmodium falciparum [3] it was 25 nM; in the assay with Plasmodium falciparum [4], 123 nM.
Turning to `CCC1CN2CCC1CC2C(O)c1ccnc2c(CNC(=O)CCCCCCCCC(=O)Nc3cccc4c(C(O)C5CC6CCN5CC6CC)ccnc34)cccc12` (stereo unspecified), the figures for the IC50 in the assay with Plasmodium falciparum [3] and with Plasmodium falciparum [4] were 20 nM and 50 nM, respectively.
In the case of `OC(c1cc(C(F)(F)F)nc2c(C(F)(F)F)cccc12)C1CCCCN1` (stereo unspecified) [MEFLOQUINE], the values for the IC50 with Plasmodium falciparum [1] and with Plasmodium falciparum [4] were 30000 nM and 90 nM, respectively.
Consider `CCN(CC)CCCC(C)Nc1cc(CCCCCCCCCCCCc2cc(NC(C)CCCN(CC)CC)c3ccccc3n2)nc2ccccc12` (stereo unspecified), for which the IC50 is 37000 nM with Plasmodium falciparum [1], 86000 nM in assay [2], 17 nM in the assay with Plasmodium falciparum [3] and 43 nM with Plasmodium falciparum [4].
On to `CCN(CC)CCCC(C)Nc1cc(CCCCCCCCCCc2cc(NC(C)CCCN(CC)CC)c3ccccc3n2)nc2ccccc12` (stereo unspecified), for which the IC50 was found to be 80000 nM in the assay on Plasmodium falciparum [1], 94000 nM in assay [2], 16 nM in the assay on Plasmodium falciparum [3] and 154 nM in the assay on Plasmodium falciparum [4].
